Test results as given in patent publication US20060069132A1, “Azolecarboxamide herbicides” (priority 2004, published 2006).

Key:
[1] = system: small flower umbrella sedge; assay: Test B flooded paddy test; type: in vivo, Cyperus difformis; settings: 1000 g ai/ha, visual rating, scale 0 to 100 (0 no effect, 100 complete control), 13 to 15 days
Method in brief: (§1)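 Paddy species grown to the 2-leaf stage under flooding; blackgrass sprayed postemergence at 2–18 cm (1- to 4-leaf stage). Plants kept in a greenhouse for 13 to 15 days, then visually rated against controls on 0 (no effect) to 100 (complete control).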

barnyardgrass [2] = assay: Test A pre-/postemergence herbicide test; type: in vivo, Echinochloa crus-galli
Method in brief: (§2)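 Pre: seeded sandy loam, directed soil spray, compound in non-phytotoxic solvent + surfactant. Post: 1–2-leaf plants (2–10 cm), sprayed to runoff. Greenhouse ~10 d; visual injury vs untreated, 0–100 scale.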

morningglory [3] = assay: Test A pre-/postemergence herbicide test; type: in vivo, Ipomoea spp.
Method in brief: as §2

redroot pigweed = assay: Test A pre-/postemergence herbicide test; type: in vivo, Amaranthus retroflexus
Method in brief: as §2

rice [4] = assay: Test B flooded paddy test; type: in vivo, Oryza sativa; settings: 1000 g ai/ha, visual rating, scale 0 to 100 (0 no effect, 100 complete control), 13 to 15 days
Method in brief: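 Read-out: visual comparison with controls, scored 0 to 100, where 100 means complete control and 0 no effect. Formulated chemicals were applied postemergence to plants 2–18 cm tall (1- to 4-leaf), or to flooded-paddy plants at the 2-leaf stage, then held 13 to 15 days under glass.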

giant foxtail [5] = assay: Test A pre-/postemergence herbicide test; type: in vivo, Setaria faberi
Method in brief: as §2

ducksalad = assay: Test B flooded paddy test; type: in vivo, Heteranthera limosa; settings: 1000 g ai/ha, visual rating, scale 0 to 100 (0 no effect, 100 complete control), 13 to 15 days
Method in brief: as §1

barnyardgrass [6] = assay: Test B flooded paddy test; type: in vivo, Echinochloa crus-galli; settings: 1000 g ai/ha, visual rating, scale 0 to 100 (0 no effect, 100 complete control), 13 to 15 days
Method in brief: as §1

large crabgrass [7] = assay: Test A pre-/postemergence herbicide test; type: in vivo, Digitaria sanguinalis
Method in brief: as §2

velvetleaf [8] = assay: Test A pre-/postemergence herbicide test; type: in vivo, Abutilon theophrasti
Method in brief: as §2

pigweed = assay: Test B pre-/postemergence herbicide test; type: in vivo, Amaranthus retroflexus; settings: for Pigweed plant response rating: postemergence, visual rating, scale 0 (no effect) to 100 (complete control)
Method in brief: (§3)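 Visual rating, 0 (no effect) to 100 (complete control), versus untreated controls after 13–15 d in greenhouse. Pre- and postemergence applications (postemergence plants 2–18 cm, 1–4 leaves); flooded paddy arm at 2-leaf stage. Compounds in non-phytotoxic solvent plus surfactant.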

rice [9] = assay: Test B pre-/postemergence herbicide test; type: in vivo, Oryza sativa; settings: preemergence
Method in brief: as §3

blackgrass = assay: Test B postemergence herbicide test; type: in vivo, Alopecurus myosuroides; settings: postemergence, visual rating, scale 0 (no effect) to 100 (complete control)
Method in brief: as §1

velvetleaf [10] = assay: Test B pre-/postemergence herbicide test; type: in vivo, Abutilon theophrasti; settings: for Velvetleaf plant response rating: postemergence, visual rating, scale 0 (no effect) to 100 (complete control)
Method in brief: as §3

barnyardgrass [11] = assay: Test B pre-/postemergence herbicide test; type: in vivo, Echinochloa crus-galli; settings: for Barnyardgrass plant response rating: postemergence, visual rating, scale 0 (no effect) to 100 (complete control)
Method in brief: (§4)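 Test chemicals in a non-phytotoxic solvent mixture with surfactant were applied preemergence to seeded species and postemergence to plants 2-18 cm tall (1- to 4-leaf stage); rice and barnyardgrass were also tested in a flooded paddy at the 2-leaf stage. Visual rating versus controls after 13-15 days in greenhouse, scale 0 (no effect) to 100 (complete control).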

lambsquarters = assay: Test B pre-/postemergence herbicide test; type: in vivo, Chenopodium album; settings: for Lambsquarters plant response rating: postemergence, visual rating, scale 0 (no effect) to 100 (complete control)
Method in brief: as §3

Surinam grass = assay: Test B pre-/postemergence herbicide test; type: in vivo, Urochloa decumbens; settings: for Surinam Grass plant response rating: postemergence, visual rating, scale 0 (no effect) to 100 (complete control)
Method in brief: as §3

wild oat = assay: Test B postemergence herbicide test; type: in vivo, Avena fatua; settings: postemergence, visual rating, scale 0 (no effect) to 100 (complete control)
Method in brief: (§5)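 Postemergence plants were sprayed with formulated test chemicals at 2 to 18 cm height (1- to 4-leaf stage); paddy species were grown to the 2-leaf stage. After 13 to 15 days in a greenhouse, injury was rated visually against untreated controls on a 0–100 scale (0 = no effect, 100 = complete control).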

wheat = assay: Test B postemergence herbicide test; type: in vivo, Triticum aestivum; parameters: key to Wheat plant response rating: 0 = no effect, 100 = complete control; settings: postemergence, visual rating, scale 0 (no effect) to 100 (complete control)
Method in brief: as §5

giant foxtail [12] = assay: Test B pre-/postemergence herbicide test; type: in vivo, Setaria faberi; settings: for Foxtail, Giant plant response rating: postemergence, visual rating, scale 0 (no effect) to 100 (complete control)
Method in brief: as §3

cocklebur = assay: Test B pre-/postemergence herbicide test; type: in vivo, Xanthium strumarium; settings: postemergence, visual rating, scale 0 (no effect) to 100 (complete control)
Method in brief: as §4

large crabgrass [13] = assay: Test B pre-/postemergence herbicide test; type: in vivo, Digitaria sanguinalis; settings: for Crabgrass, Large plant response rating: postemergence, visual rating, scale 0 (no effect) to 100 (complete control)
Method in brief: as §3

morningglory [14] = assay: Test B pre-/postemergence herbicide test; type: in vivo, Ipomoea coccinea; settings: for Morningglory plant response rating: postemergence, visual rating, scale 0 (no effect) to 100 (complete control)
Method in brief: as §4

corn = assay: Test B pre-/postemergence herbicide test; type: in vivo, Zea mays; settings: for Corn plant response rating: postemergence, visual rating, scale 0 (no effect) to 100 (complete control)
Method in brief: as §3

[15] = Postemergence, 500 g ai/ha, 0 to 100 scale, 0 no effect, 100 complete control
[16] = Postemergence, 2000 g ai/ha, 0 to 100 scale, 0 no effect, 100 complete control
[17] = Preemergence, 2000 g ai/ha, visual rating, 0 to 100 scale (0 no effect, 100 complete control)
[18] = preemergence, 500 g ai/ha, visual injury, 0 to 100 scale (0 no effect, 100 complete control)
[19] = 125 g ai/ha, 0 = no effect, 100 = complete control, preemergence
[20] = 500 g ai/ha, visual rating 0-100, 0 no effect, 100 complete control, preemergence

CCn1nc(C(C)(C)C)cc1C(=O)Nc1nc(OC)cc(SCF)n1 [Compound 167]
Sedge, Umbrella plant response rating [1]: 0
Barnyardgrass plant response rating (barnyardgrass [2]; [15]): 0
Plant response rating, Barnyardgrass (barnyardgrass [2]; [16]): 0
Barnyardgrass plant response rating (barnyardgrass [2]; [17]): 0
Barnyardgrass plant response rating (barnyardgrass [2]; [18]): 0
Morningglory plant response rating (morningglory [3]; [15]): 0
Plant response rating, Morningglory (morningglory [3]; [16]): 10
Morningglory plant response rating (morningglory [3]; [17]): 5
Morningglory plant response rating (morningglory [3]; [18]): 0
Pigweed plant response rating (redroot pigweed; [15]): 0
Plant response rating, Pigweed (redroot pigweed; [16]): 0
Pigweed plant response rating (redroot pigweed; [17]): 50
Pigweed plant response rating (redroot pigweed; [18]): 0
Rice plant response rating (rice [4]): 0
Foxtail, Giant plant response rating (giant foxtail [5]; [15]): 0
Plant response rating, Foxtail, Giant (giant foxtail [5]; [16]): 0
Foxtail, Giant plant response rating (giant foxtail [5]; [17]): 10
Foxtail, Giant plant response rating (giant foxtail [5]; [18]): 0
Ducksalad plant response rating (ducksalad): 0
Barnyardgrass plant response rating (barnyardgrass [6]): 0
Crabgrass, Large plant response rating (large crabgrass [7]; [15]): 0
Plant response rating, Crabgrass, Large (large crabgrass [7]; [16]): 5
Crabgrass, Large plant response rating (large crabgrass [7]; [17]): 5
Crabgrass, Large plant response rating (large crabgrass [7]; [18]): 0
Velvetleaf plant response rating (velvetleaf [8]; [15]): 10
Plant response rating, Velvetleaf (velvetleaf [8]; [16]): 20
Velvetleaf plant response rating (velvetleaf [8]; [17]): 10
Velvetleaf plant response rating (velvetleaf [8]; [18]): 5
Pigweed plant response rating (0 to 100 scale) (pigweed; [19]): 0
Plant response rating, Pigweed (pigweed; [20]): 0
Pigweed plant response rating (pigweed; 125 g ai/ha): 0
Pigweed plant response rating (pigweed; 500 g ai/ha): 0
Rice plant response rating (0 to 100 scale) (rice [9]; 125 g ai/ha, 0 = no effect, 100 = complete control): 0
Plant response rating, Rice (rice [9]; 500 g ai/ha, visual rating 0-100, 0 no effect, 100 complete control): 0
Blackgrass plant response rating (blackgrass; 125 g ai/ha): 0
Blackgrass plant response rating (blackgrass; 500 g ai/ha): 0
Velvetleaf plant response rating (0 to 100 scale) (velvetleaf [10]; [19]): 0
Plant response rating, Velvetleaf (velvetleaf [10]; [20]): 0
Velvetleaf plant response rating (velvetleaf [10]; 125 g ai/ha): 0
Velvetleaf plant response rating (velvetleaf [10]; 500 g ai/ha): 0
Barnyardgrass plant response rating (0 to 100 scale) (barnyardgrass [11]; [19]): 0
Plant response rating, Barnyardgrass (barnyardgrass [11]; [20]): 0
Barnyardgrass plant response rating (barnyardgrass [11]; 125 g ai/ha): 0
Barnyardgrass plant response rating (barnyardgrass [11]; 500 g ai/ha): 0
Lambsquarters plant response rating (0 to 100 scale) (lambsquarters; [19]): 0
Plant response rating, Lambsquarters (lambsquarters; [20]): 0
Lambsquarters plant response rating (lambsquarters; 125 g ai/ha): 0
Lambsquarters plant response rating (lambsquarters; 500 g ai/ha): 0
Surinam Grass plant response rating (0 to 100 scale) (Surinam grass; [19]): 0
Plant response rating, Surinam Grass (Surinam grass; [20]): 0
Surinam Grass plant response rating (Surinam grass; 125 g ai/ha): 0
Surinam Grass plant response rating (Surinam grass; 500 g ai/ha): 0
Oat, Wild plant response rating (wild oat; 125 g ai/ha): 0
Oat, Wild plant response rating (wild oat; 500 g ai/ha): 0
Wheat plant response rating (wheat; 125 g ai/ha): 0
Wheat plant response rating (wheat; 500 g ai/ha): 0
Foxtail, Giant plant response rating (0 to 100 scale) (giant foxtail [12]; [19]): 0
Plant response rating, Foxtail, Giant (giant foxtail [12]; [20]): 0
Foxtail, Giant plant response rating (giant foxtail [12]; 125 g ai/ha): 0
Foxtail, Giant plant response rating (giant foxtail [12]; 500 g ai/ha): 0
Cocklebur plant response rating (cocklebur; 125 g ai/ha): 0
Cocklebur plant response rating (cocklebur; 500 g ai/ha): 0
Crabgrass, Large plant response rating (0 to 100 scale) (large crabgrass [13]; [19]): 0
Plant response rating, Crabgrass, Large (large crabgrass [13]; [20]): 0
Crabgrass, Large plant response rating (large crabgrass [13]; 125 g ai/ha): 0
Crabgrass, Large plant response rating (large crabgrass [13]; 500 g ai/ha): 0
Morningglory plant response rating (0 to 100 scale) (morningglory [14]; [19]): 0
Plant response rating, Morningglory (morningglory [14]; [20]): 0
Morningglory plant response rating (morningglory [14]; 125 g ai/ha): 0
Morningglory plant response rating (morningglory [14]; 500 g ai/ha): 0
Plant response rating, Corn (corn; [20]): 0
Corn plant response rating (corn; 125 g ai/ha): 0
Corn plant response rating (corn; 500 g ai/ha): 0
